# Patent US10085449B2, “N-[1-((6-chloropyridin-3-yl)methyl)pyridin-2(1H)-ylidene]-2,2,2- trifluoroacetamide for control of agricultural/horticultural pests” (priority 2010, dated 2018)
# Read-outs that look alike come from different tables or passages of the source.
# Key:
# rice leaf bug = experiment: whole plant or invertebrate; assay type: in vivo; settings: foliar, 72 h
# Experimental: The treated seedlings were air-dried, then each was placed in a glass cylinder and two second-instar rice leaf bug larvae were released within the same glass cylinder. Following release of the insects, the tube was capped and held in an incubation chamber at 25° C. (16-hour period of light, 8-hour dark period). […] Three days after released, the numbers of live and dead insects were counted, and the mortality was calculated from the following formula. Mortality (%)=[number of dead insects/(number of live insects+number of dead insects)]×100
# common cutworm = experiment: whole plant or invertebrate; assay type: in vivo; settings: for Insecticidal effects (mortality), common cutworm third-instar larvae: foliar application
# Procedure, shortened: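 Cabbage leaf discs (5.0 cm) sprayed with compound at a set concentration in 50% acetone/water with 0.05% Tween 20, air dried, then infested with third-instar larvae. Held at 25° C., 16 h light/8 h dark; dead and live larvae counted after 3 days, two replicates, mortality (%) = dead/(live+dead)×100.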
# diamondback moth = experiment: whole plant or invertebrate; assay type: in vivo; settings: Plutella xylostella, foliar
# Procedure, shortened: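 Cabbage leaf discs sprayed with compound in 50% acetone/water with 0.05% Tween 20, air-dried, then infested with second-instar larvae. Held at 25 °C under 16 h light/8 h dark; mortality from dead/(live+dead) counts after 3 days, two replicates.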
# small brown planthopper [1] = experiment: whole plant or invertebrate; assay type: in vivo; settings: Laodelphax striatellus, in Triticum aestivum, 96 h
# Procedure, shortened: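 Roots of 48-h wheat seedlings took up compound in 10% acetone/water for 72 h, then ten second-instar larvae were released per seedling and held at 25 °C (16 h light/8 h dark). Mortality counted four days after release; two replications.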
# cotton aphid = experiment: whole plant or invertebrate; assay type: in vivo; settings: Aphis gossypii, foliar
# Procedure, shortened: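 Cucumber leaf discs (2.0 cm) sprayed with compound in 50% acetone/water with 0.05% Tween 20, air-dried, then infested with first-instar cotton aphids. Held at 25 °C under 16 h light/8 h dark; mortality counted after 3 days, two replicates.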
# greenhouse whitefly = experiment: whole plant or invertebrate; assay type: in vivo; settings: Cucumis sativus, foliar, 336 h
# Experimental: Adult greenhouse whiteflies were released onto cucumber plants grown in pots, and allowed to laid eggs overnight. One day after the start of oviposition, the adults were removed, and the plants and eggs were held in an incubation chamber at 25° C. (16-hour period of light, 8-hour dark period). Three days after the end of oviposition, leaf discs 2.0 cm in diameter were cut from the cucumber plants and, after confirming oviposition thereon, the leaf discs were sprayed with solutions of the inventive compounds at a predetermined concentration prepared to 50% acetone/water (containing 0.05% Tween 20). After spraying, the treated leaf discs were held in an incubation chamber at 25° C. (16-hour period of light, 8-hour dark period). Fourteen days after spraying, the numbers of live and dead insects were counted, and the mortality was calculated from the following formula. This was a two-replication test. Mortality (%)=[(number of oviposited eggs−number of live insects)/number of oviposited eggs]×100
# western flower thrips = experiment: whole plant or invertebrate; assay type: in vivo; settings: Frankliniella occidentalis, foliar
# Procedure, shortened: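 Bean leaf discs sprayed with compound in 50% acetone/water with 0.05% Tween 20, air dried, then infested with first-instar larvae. Held at 25° C under 16 h light/8 h dark; live and dead counted after 3 days to give % mortality, two replicates.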
# small brown planthopper [2] = experiment: whole plant or invertebrate; assay type: in vivo; settings: Laodelphax striatellus, 72 h
# Procedure, shortened: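 Rice seedlings in pots soil-drenched with compound at a set concentration in 10% acetone/water; ten second-instar larvae released per seedling 3 days later. Held at 25° C. (16 h light/8 h dark) and scored live/dead 3 days after release. Mortality (%) = dead/(live+dead)×100; two replications.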
# small brown planthopper [3] = experiment: whole plant or invertebrate; assay type: in vivo; settings: Laodelphax striatellus, foliar
# Experimental: (§1) Rice seedlings grown in pots were subjected to the foliar application of solutions of the inventive compounds at a predetermined concentration prepared to 50% acetone/water (containing 0.05% Tween 20). The treated seedlings were air dried, following which second-instar larvae were released onto the seedlings. The seedlings and larvae were then held in an incubation chamber at 25° C. (16-hour period of light, 8-hour dark period). Three days after released, the numbers of live and dead insects were counted, and the mortality was calculated from the following formula. This was a two-replication test. Mortality (%)=[number of dead insects/(number of live insects+number of dead insects)]×100
# [4] = system: brown rice planthopper having a low susceptibility to insecticides; assay type: in vivo; settings: 0.05 mg/seedling soil drenching
# Experimental: (§2) Rice seedlings grown in pots were subjected to soil drenching treatment with solutions of the inventive compounds at a predetermined concentration prepared to 10% acetone/water. Three days after treatment, ten second-instar brown rice planthopper larvae having a low susceptibility to insecticides were released onto each seedling. The seedlings and insects were then held in an incubation chamber at 25° C. (16-hour period of light, 8-hour dark period). Three days after released, the numbers of live and dead insects were counted, and the mortality was calculated from the following formula. The test was carried out as two replications. Mortality (%)=[number of dead insects/(number of live insects+number of dead insects)]×100
# The pests used in this test were insects that had been raised indoors for successive generations over a long period of time (susceptible line), and insects that had been raised indoors for successive generations after being collected (I) in 2007 within Kumamoto Prefecture and (II) in 2005 within Fukuoka Prefecture (field-collected lines).
# [5] = system: house fly crude enzyme extract; experiment: In vitro metabolic test using house fly crude enzyme extract; assay type: in vitro ADME; settings: house fly crude enzyme extract with NADP+ regenerating system, 25° C., 40 hours, LC/MS
# Experimental: As mentioned in Pest Management Science, 59(3), 347-352 (2003) and the Journal of Pesticide Science, 29(2), 110-116 (2004), imidacloprid is known to be inactivated by incurring oxidative metabolism, which is thought to be one mechanism of acquiring resistance to this agent. The following experiment was carried out to confirm the effects in pests which have acquired such resistance.
# An amount of 10 mL of a potassium phosphate buffer solution (pH 7.4, containing 1 mM EDTA) was added to adult house flies (0.645 g), and the flies were thoroughly homogenized in a Physcotron (Niti-On Medical and Physical Instruments Manufacturing Co.). The homogenate was then centrifuged at 10,000 g for 15 minutes. The resulting supernatant was additionally centrifuged at 100,000 g for 60 minutes, giving a precipitate. The precipitate was dissolved in 1 mL of a potassium phosphate buffer, and the resulting solution was used as the crude enzyme extract. The enzyme extraction operations were all carried out on ice or at 4° C.
# The reagents were mixed in the following proportions within a 1.5 mL tube, and the reaction was effected at 25° C. for 40 hours. Following the reaction, 1 mL of acetone was added and the mixture was stirred, following which the precipitate that formed was centrifuged at 12,000 rpm for 5 minutes. […]
# [6] = system: Haemaphysalis longicornis; assay type: in vivo; settings: 10 ppm acetone solution (30 μL) dry film, larval ticks, 1 day after release
# Experimental: Glass vials having a capacity of 4 mL were each filled with 30 μL of an acetone solution containing 200 ppm or 10 ppm of the respective compounds. These filled vials were placed on a shaker and air-dried while being spun, thereby forming dry films of the compounds on the inner walls of the vials. After the vials had been dried for at least 24 hours, ten larval ticks (Haemaphysalis longicornis) were released into each vial, following which the vials were capped. The vials were then left at rest in an incubation chamber at 25° C., 85% humidity and complete darkness. One day after released, the numbers of live and dead ticks were counted, and the mortality was calculated from the following formula.
# This test was carried out as two replications. Mortality (%)=[number of dead ticks/(number of live ticks+number of dead ticks)]×100
# [7] = system: small brown planthopper having a low susceptibility to insecticides; experiment: Small brown planthopper control test, pests having a low susceptibility to insecticides (soil drenching); assay type: in vivo; settings: 0.01 mg/seedling soil drenching
# Experimental: as §2, with “second-instar small” for “second-instar”, “brown” for “brown rice”
# The pests used in this test were insects that had been raised indoors for successive generations over a long period of time (susceptible line), and insects that had been raised indoors for successive generations after being collected in 2006 within Kumamoto Prefecture (field-collected line).
# [8] = system: canine heartworm microfilariae; experiment: Effects on canine heartworm (motility of microfilariae); parameters: key: At least two-thirds of the heartworms died; B: Substantially all the heartworms were affected in some way, or at least one-third died; C: No influence, or less than one-third of the heartworms died; settings: 3.13 ppm in RPMI1640 liquid culture medium, 37° C., observed for 48 hours
# Experimental: The activities of the compounds were evaluated based on changes in the motility of microfilariae in canine heartworm. The respective compounds were dissolved in a RPMI1640 liquid culture medium to a concentration of 3.13 ppm, following which about 20 canine heartworm microfilariae were placed in each culture fluid and cultured at 37° C.
# Criteria A: At least two-thirds of the heartworms died • B: Substantially all the heartworms were affected in some way, or at least one-third died • C: No influence, or less than one-third of the heartworms died
# [9] = system: white-backed rice planthopper; experiment: White-backed rice planthopper control test (foliar application); assay type: in vivo; settings: 100 ppm foliar application, second-instar larvae on rice seedlings, 4 days after release
# Experimental: as §1, with “Four” for “Three”
# [10] = read-out: Insecticidal effects (mortality), diamondback moth second-instar larvae
# [11] = read-out: Insecticidal effects (mortality), small brown planthopper second-instar larvae
# [12] = read-out: Insecticidal effects (mortality), cotton aphid first-instar larvae
# [13] = read-out: Insecticidal effects (mortality), western flower thrips first-instar larvae
# [14] = soil, read-out: Insecticidal effects (mortality), small brown planthopper second-instar larvae
smiles,measurement,setting,value
"O=C(N=c1ccccn1Cc1ccc(F)nc1)C(F)(F)F [Compound 229, N-[1-((6-fluoropyridin-3-yl)methyl)pyridin-2(1H)-ylidene]-2,2,2-trifluoroacetamide]",mortality at 50 ppm,rice leaf bug,≥ 80%
same,"Insecticidal effects (mortality), common cutworm third-instar larvae",common cutworm; 100 ppm,30
same,"Insecticidal effects (mortality), common cutworm third-instar larvae",common cutworm; 500 ppm,100
same,mortality at 500 ppm,"common cutworm; foliar, 72 h",≥ 80%
same,mortality at 20 ppm,diamondback moth; [10],40%
same,mortality at 100 ppm,diamondback moth; [10],100%
same,mortality at 500 ppm,diamondback moth; [10],100%
same,mortality at 100 ppm,"diamondback moth; in Brassica oleracea, 72 h",≥ 80%
same,mortality at 500 ppm,"diamondback moth; in Brassica oleracea, 72 h",≥ 80%
same,mortality at 20 µg/seedling,small brown planthopper [1],≥ 80%
same,mortality at 0.063 mg/seedling,small brown planthopper [1]; [11],25%
same,mortality at 0.25 mg/seedling,small brown planthopper [1]; [11],75%
same,mortality at 0.5 mg/seedling,small brown planthopper [1]; [11],100%
same,mortality at 2 mg/seedling,small brown planthopper [1]; [11],100%
same,mortality at 1.25 ppm,cotton aphid; [12],80%
same,mortality at 5 ppm,cotton aphid; [12],95%
same,mortality at 20 ppm,cotton aphid; [12],100%
same,mortality at 100 ppm,cotton aphid; [12],100%
same,mortality at 500 ppm,cotton aphid; [12],100%
same,mortality at 20 ppm,"cotton aphid; in Cucumis sativus, 72 h",≥ 80%
same,mortality at 100 ppm,"cotton aphid; in Cucumis sativus, 72 h",≥ 80%
same,mortality at 500 ppm,"cotton aphid; in Cucumis sativus, 72 h",≥ 80%
same,mortality at 100 ppm,greenhouse whitefly,≥ 80%
same,mortality at 500 ppm,western flower thrips; 72 h,≥ 80%
same,mortality at 100 ppm,western flower thrips; [13],60%
same,mortality at 500 ppm,western flower thrips; [13],100%
same,pest or weed control at 0.005 mg/pot,"small brown planthopper [2]; rice soil drenching, 0.005 mg/pot (Table 13), read-out: Small brown planthopper (rice soil drenching), effect",30%
same,pest or weed control at 0.01 mg/pot,"small brown planthopper [2]; rice soil drenching, 0.01 mg/pot (Table 13), read-out: Small brown planthopper (rice soil drenching), effect",100%
same,pest or weed control at 0.05 mg/pot,"small brown planthopper [2]; rice soil drenching, 0.05 mg/pot (Table 13), read-out: Small brown planthopper (rice soil drenching), effect",100%
same,mortality at 0.05 mg/seedling,small brown planthopper [2]; soil,≥ 80%
same,mortality at 0.005 mg/pot,small brown planthopper [2]; [14],30%
same,mortality at 0.01 mg/pot,small brown planthopper [2]; [14],100%
same,mortality at 0.05 mg/pot,small brown planthopper [2]; [14],100%
same,mortality at 5 ppm,small brown planthopper [3]; [11],95%
same,mortality at 100 ppm,"small brown planthopper [3]; in Oryza sativa, 72 h",≥ 80%
O=[N+]([O-])NC1=NCCN1Cc1ccc(Cl)nc1 [imidacloprid],Mortality,[4]; field-collected line (I) 2007 Kumamoto Prefecture,40%
same,Mortality,[4]; field-collected line (II) 2005 Fukuoka Prefecture,60%
same,Mortality,[4]; susceptible line,100%
same,Sum of the surface area percentages for the metabolites,[5],2.55%
same,Mortality,[6],4%
same,Mortality,[7]; field-collected line (2006 Kumamoto Prefecture),50%
same,Mortality,[7]; susceptible line,100%
"CSCCN(C#N)Cc1ccc(Cl)nc1 [Compound 1, 2-chloro-5-[N-cyano-N-(2-methylthioethyl)]aminomethylpyridine]",Microfilaricidal effect (motility rating),[8],B
same,Mortality,[9],at least 80%
